Assays:
Rat pharmacokinetics = assay type: in vivo, SD rats; parameters: AUC: concentration or dose not given beside the values; details: for AUC / Cmax / Tmax / clearance / half-life / Vd: male, SD, plasma; for Vd: read-out: Vss
Text: (§1) Example 53: Investigation of the Pharmacokinetic Characteristics of the Compounds of the Present Invention
(§2) SD rats: male, 180-250 g, purchased from Guangdong Medical Laboratory Animal Center. Cynomolgus monkey: male, 4-6 kg, purchased from Guangzhou Chunsheng Biological Research Institute Co., Ltd. Beagle dog: male, 8-12 kg, developed in Kanglong Chemical (Ningbo) New Drug Technology Co., Ltd.
(§3) Reagents: DMSO (dimethyl sulfoxide), PEG-400 (polyethylene glycol 400), normal brine, heparin, acetonitrile, formic acid, and propranolol (internal standard) are commercially available.
(§4) Instrumentation: Thermo Fisher Scientific LC-MS (U300 UPLC, TSQ […] ULTRA triple quadrupole mass spectrometer).
(§5) The compound was weighed and dissolved in DMSO-PEG-400-physiological brine (5:60:35, v/v/v) system. After the rats/monkeys were administered intravenously or by gavage, 200 μL of venous blood was collected at 5 min (not collected when administered by gavage), 15 min, 30 min, 1 h, 2 h, 4 h, 6 h, 8 h, and 24 h in heparinized EP tubes, centrifuged at 12000 rpm for 2 min, and the plasma was frozen at −80° C. for testing. A certain amount of the test substance was precisely weighed and dissolved in DMSO to 1 mg/mL, which was used as a stock solution. An appropriate amount of compound stock solution was accurately pipetted and diluted with acetonitrile to prepare a standard series of solutions. 20 μL of each of the above standard series solutions were accurately pipetted, added with 180 μL of blank plasma, vortexed and mixed to prepare plasma samples equivalent to plasma concentrations of 1, 3, 10, 30, 100, 300, 1000, 3000 and 5000 ng/mL. Two-sample analysis was performed for each concentration to establish a standard curve. 20 μL of plasma was taken out, added with 200 μL of internal standard propranolol (5 ng/mL) in acetonitrile, vortexed and mixed. It was centrifuged at 4000 rpm for 5 min, and the supernatant was collected for LC-MS analysis. LC-MS detection conditions were as follows:
(§6) Chromatographic column: Thermo Scientific […] GOLD C-18 UPLC column, 100*2.1 mm, 1.9 μm.
(§7) Mobile phase: water (0.1% formic acid)-acetonitrile for gradient elution according to the table below.
(§8) After blood drug concentrations being detected by LC-MS, WinNonlin 6.1 software was used to calculate pharmacokinetic parameters by non-compartmental model method.

[1] = Cynomolgus monkey pharmacokinetics; assay type: in vivo; parameters: AUC: concentration or dose not given beside the values
Text: as §1, §2, §3, §4, §5, §6, §7, §8

CYP2C19 = molecular target: T1, CYP2C19 (Homo sapiens, UniProt P33261); assay: CYP enzyme inhibition in liver microsomes: CYP2C19; assay type: in vitro ADME; details: 0.2 mg/mL liver microsomes
T1 construct: Liver microsomes (150-donor, Corning, Cat. 452117; Lot; 38292), NADPH; tissue Corning 452117; host or cells: liver microsomes, 150-donor pool
T1 sequence (P33261 whole entry): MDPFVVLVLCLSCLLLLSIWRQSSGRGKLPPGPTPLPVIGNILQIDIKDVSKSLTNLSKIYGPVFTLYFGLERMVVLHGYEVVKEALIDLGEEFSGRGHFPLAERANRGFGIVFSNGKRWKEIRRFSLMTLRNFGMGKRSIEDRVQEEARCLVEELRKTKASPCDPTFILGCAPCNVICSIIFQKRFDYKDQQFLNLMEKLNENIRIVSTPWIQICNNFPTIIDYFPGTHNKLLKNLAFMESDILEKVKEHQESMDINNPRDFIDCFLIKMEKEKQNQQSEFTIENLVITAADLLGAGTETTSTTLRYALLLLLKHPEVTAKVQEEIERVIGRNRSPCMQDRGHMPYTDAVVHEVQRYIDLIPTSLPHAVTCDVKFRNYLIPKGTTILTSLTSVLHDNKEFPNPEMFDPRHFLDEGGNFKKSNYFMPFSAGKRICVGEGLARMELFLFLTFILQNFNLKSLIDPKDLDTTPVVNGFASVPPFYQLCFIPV
Description: Example 55: Investigation of CYP Enzyme Inhibition by the Compounds of the Present Invention Liver microsomes (150-donor, Corning, Cat. 452117; Lot. 38292), NADPH. A 0.2 mg/mL microsome system was prepared, each test substance and substrate were added, and the final concentration of the test substance was 50 μM. After pre-incubating for 8 min, 10 mM NADPH was added to start the reaction, and the final concentration of NADPH was 1 mM. After a period of incubation, an internal standard such as methanol was added to stop the reaction. The amount of substrate metabolites generated in each reaction well was detected. Data processing: Taking the metabolite generation in the blank well as 100%, the reduction of metabolite generation in each well of the test substance was calculated, and the inhibition rate was calculated.

For COc1nn([C@@H](Cc2ccccc2)C(=O)Nc2ccc(C(=O)O)cc2)c(=O)cc1-c1cc(Cl)ccc1C(C)=O [Example 19, (S)-4-(2-(4-(2-acetyl-5-chlorophenyl)-3-methoxy-6-oxopyridazin-1(6H)-yl)-3-phenylpropanamido)benzoic acid], the F (Rat pharmacokinetics; ig) was 24.6%, the AUC (Rat pharmacokinetics; iv) was 1020 ng·h/mL and the Cmax (Rat pharmacokinetics; iv) was 2500 ng/mL. It also gave a Tmax (Rat pharmacokinetics; iv) of 0.083 h, a clearance (Rat pharmacokinetics; iv) of 16.4 mL/min/kg and a half-life (Rat pharmacokinetics; iv) of 0.181 h. It also gave a Vd (Rat pharmacokinetics; iv) of 0.269 L/kg, an AUC (Rat pharmacokinetics; po, ig) of 2510 ng·h/mL and a Cmax (Rat pharmacokinetics; po, ig) of 768 ng/mL. The Tmax (Rat pharmacokinetics; po, ig) was 1.25 h, the half-life (Rat pharmacokinetics; po, ig) was 2.52 h and the F ([1]; ig) was 17.3%. The AUC ([1]; male, plasma, iv) was 1430 ng·h/mL, the Cmax ([1]; male, plasma, iv) was 2690 ng/mL and the Tmax ([1]; male, plasma, iv) was 0.083 h. It also gave a clearance ([1]; male, plasma, iv) of 12 mL/min/kg, a half-life ([1]; male, plasma, iv) of 2.83 h and a Vd ([1]; male, plasma, iv, read-out: Vss) of 0.65 L/kg. The AUC ([1]; male, plasma, po, ig) was 2480 ng·h/mL, the Cmax ([1]; male, plasma, po, ig) was 198 ng/mL and the Tmax ([1]; male, plasma, po, ig) was 2.5 h. The half-life ([1]; male, plasma, po, ig) was 7.07 h and the IC50 (CYP2C19) was over 50 µM.
Compound CCC(=O)c1ccc(Cl)cc1-c1cc(=O)n([C@@H](Cc2ccccc2)C(=O)Nc2ccc(C(=O)O)cc2)nc1OC [Example 32] has an F (Rat pharmacokinetics; ig) of 5.4%, an AUC (Rat pharmacokinetics; iv) of 922 ng·h/mL and a Cmax (Rat pharmacokinetics; iv) of 2200 ng/mL. It also gave a Tmax (Rat pharmacokinetics; iv) of 0.083 h, a clearance (Rat pharmacokinetics; iv) of 23.5 mL/min/kg and a half-life (Rat pharmacokinetics; iv) of 1.65 h. For the same compound, the Vd (Rat pharmacokinetics; iv) was 0.741 L/kg, the AUC (Rat pharmacokinetics; po, ig) was 788 ng·h/mL and the Cmax (Rat pharmacokinetics; po, ig) was 242 ng/mL. The Tmax (Rat pharmacokinetics; po, ig) was 0.333 h, the half-life (Rat pharmacokinetics; po, ig) was 3.77 h and the IC50 (CYP2C19) was over 50 µM.
